# According to patent US20220218667A1, “DUAL INHIBITORS OF SOLUBLE EPOXIDE HYDROLASE AND METHODS OF USE THEREOF” (OROX Biosciences, Inc., priority 2019, published 2022):
# “And” between values parts separate entries of the source, which are not always exact repeats. Equal values may be shown once. Read-outs that look alike come from different tables or passages of the source.
# What was measured:
# [1] = test system: Human primary lung fibroblasts from IPF donors; experiment: Fibroblast-to-Myofibroblast Transition (FMT) assay; format: cell-based; details: for IC50: Homo sapiens, Primary lung fibroblast, 1.25 ng/ml TGF-b1
# Procedure: OX1 was evaluated in a primary cell-based Fibroblast-to-Myofibroblast Transition (FMT) assay; an in vitro assay relevant to idiopathic pulmonary fibrosis (TPF). Human primary lung fibroblasts from three (3) IPF donors (IPF06, IPF07, and IPF08) were triggered using 1.25 ng/ml TGF-b1 to induce FMT, one hour after application of compounds. OX1 and Nintedanib (approved drug for TPF) were applied in […] in semi-log dilutions with the top concentration at […] to construct eight (8)-point concentration response curve (CRC) in biological duplicates (ie. on two (2) different cell plates at on (1) occasion). SB525334 was used at […] in 0.1% DMSO as a positive validation control. The readouts at 72 hours were high content analysis (HCA) for aSMA expression and DAPI staining for nuclear count as measurement of potential cytotoxic effects.
# [2] = test system: C57BL/6 mice, bleomycin-induced fibrotic lung injury; experiment: Example 2: therapeutic treatment in bleomycin-induced idiopathic pulmonary fibrosis mouse model; format: in vivo; details: OX1 60 mg/kg, Pirfenidone 100 mg/kg
# Source text: The purpose of this study is to induce fibrotic lung injury in mice via a single administration of a glycopeptide antibiotic, bleomycin, in order to evaluate the efficacy of dual sEH and COX-2 inhibitor OX-1 in treating and reducing the symptoms associated with idiopathic pulmonary fibrosis. Pirfenidone, standard of care for the treatment of idiopathic pulmonary fibrosis, was used as a reference compound.
# Male C57BL/6 mice from Charles River Laboratories aging of 7-8 weeks and weighing around 18-22 g at the time of their enrollment were used in the study.
# Doses of OX1 at 60 mg/kg, Pirfenidone at 100 mg/kg, and the disease inducer Bleomycin at 1.5 mg/kg were used. A dosing rate of 10 mL/kg (approximately 0.2 mL/mouse according to their body weight) of OX1 was administered orally once daily to the mice. The mice received OX1 at 60 mg/kg once daily. A dosing rate of 10 mL/kg (approximately 0.2 mL/mouse according to their body weight) of Pirfenidone solution was administered once daily to the mice of the groups receiving Pirfenidone orally at the dose of 100 mg/kg once daily. A single intratracheal instillation of approximately 50 μL (1.5 mg/kg with a dosing rate of 2.5 mL/kg in sterile 0.9% saline) of bleomycin solution was administered to all mice except the sham group on day 0. Animals in the Sham group received one intratracheal instillation of approximately 50 μL of 0.9% saline solution on Day 0 and returned to their respective cages.
# Treatment with the vehicle or test articles were initiated and administered starting on day 7 to day 21 as scheduled and described in Table 1 above. All test articles, reference compound and vehicle were administered to animals orally once daily. Food and water were given ad libitum. Daily observations of the behavioral and general health status of the animals were done. Daily body weight was also measured.
# Prior to physiological assessment, all mice were introduced to the plethysmograph chamber environment. After the acclimatization period, the functional respiratory parameters were assessed by the whole-body plethysmograph on Day 0 (before bleomycin instillation), 7, 14 and 21 post-bleomycin instillation. Each measurement was performed with a mouse placed alone in an unrestrained whole-body plethysmography chamber (Buxco Electronics Inc.) to measure respiratory functions. The functional respiratory parameters analyzed included; the respiratory rate, the PenH ([…]) and the inspiratory/expiratory time measurements.
# On the surgery day (Day 21), the mice were anesthetized, instrumented and arterial blood oxygen saturation (SpO2) was recorded. Blood oxygen saturation was read off of the pulse oximeter (STARR Life Sciences MouseOx Plus system, Oakmont, Pa.) with the probe attached to the right thigh of the animal. The saturation values were measured in percentage (%). At the moment of the sacrifice, the mouse thoracic cavity was open to expose the lungs and all mice were euthanatized by exsanguination. The trachea was then connected to the cannula of a perfusion system. The left lung was clamped while 1.5 mL of cold PBS solution (3×500 μL) was injected by the trachea to perform a bronchoalveolar lavage fluid (BALF) on the right lobe of the lungs and was collected on ice for further analysis. The total cells count with cells differential, the cytokine levels including TNF-α, TGF-β, IL-4, IL-5 and IL-17a, the total protein content as well as the soluble collagen were assessed in the BALF samples. Once collected, 300 μL of the BALF was transferred in an EDTA tube, kept at 2-4° C. and shipped to Biovet Inc. for the total cells count with cells differential analysis. The remaining BALF sample was centrifuged at 1200 rpm for 10 minutes at 4° C. to remove cells. The supernatant was aliquots and frozen at−80° C. until analysis was performed. […]
structure (smiles),measurement,setting,value
"NS(=O)(=O)c1ccc(-n2nc(CCCNC(=O)Nc3ccc(C(F)(F)F)cc3)cc2-c2ccccc2)cc1 [OX1, 4-(5-phenyl-3-{3-[3-(4-trifluoromethyl-phenyl)-ureido]-propyl}-pyrazol-1-yl)-benzenesulfonamide]",Loss of Nuclei,[1],Yes
same,IC50,"[1]; donor IPF06, readout at 72 hours, read-out: αSMA inhibition IC50 (μM), Patient Identifier IPF06",1 µM
same,IC50,"[1]; donor IPF07, readout at 72 hours, read-out: αSMA inhibition IC50 (μM), Patient Identifier IPF07",1.3 µM
same,IC50,"[1]; donor IPF08, readout at 72 hours, read-out: αSMA inhibition IC50 (μM), Patient Identifier IPF08",1 µM
same,IC50,"[1]; mean of three IPF donors, 72 hours, read-out: αSMA inhibition IC50 (μM), Mean",1.1 µM
same,Eosinophils (cells),"[2]; BALF day 21, mean",580 cells
same,Macrophages (cells),"[2]; BALF day 21, mean",204879 cells
same,Soluble collagen,"[2]; BALF day 21, mean",60.4 µg and 60.38 µg
same,Total BALF cytokines (pg) IL-4,"[2]; BALF day 21, mean",0.09 pg
same,Total BALF cytokines (pg) IL-5,"[2]; BALF day 21, mean",2.49 pg
same,Total BALF cytokines (pg) IL-6,"[2]; BALF day 21, mean",9.50 pg
same,Total TGFβ,"[2]; BALF day 21, mean",299.3 pg and 299.31 pg
same,Percent Survival (%),"[2]; BLM mice, oral once daily day 7 to 21",77.8%
same,Body weight changes from day 7 (%),"[2]; mean, BLM mice, oral once daily day 7 to 21",11.63%
